Source: a melting point compilation (Tetko et al.; mined from patent text by program, amines drawn as free bases though some values may be those of a salt)

Row | Structure (SMILES) | melting point
1 | COc1ccc2c(C(=S)N(C)CC(=O)N(C)C)cccc2c1C(F)(F)F | 172 to 175 °C
2 | CCC(=O)N1Cc2cc(OC)ccc2C(Cc2c(Cl)cncc2Cl)=N1 | 195 to 197 °C
3 | Cc1cnc(-c2ccc(O)cc2)o1 | 177 to 178 °C
4 | N#CC1(c2ccc(F)cc2)C2CC3CC(C2)CC1C3 (centres undefined) | 81 to 82 °C
5 | COc1ccc(C(=O)Nc2ccccc2)cc1NCc1ccc(C)c(C)c1 | 163 to 164 °C
6 | O=C(O)COc1cccc2c1CCc1sc(OCCC(c3ccccc3)c3ccccc3)nc1-2 | 165 to 166 °C
7 | CC(=O)Nc1ccc(OCC2CO2)c(C(=O)Nc2cccc3[nH]ccc23)c1 (centres undefined) | 230 °C
8 | COc1cc2ncnc(N3CCc4cc(F)ccc43)c2cc1OC | 190 to 191 °C
9 | Cc1c(NC(=O)c2ccc(OC[C@@H]3CCCO3)cc2)ccc2cc(CNCC(C)(C)C)[nH]c12 | 168 °C
10 | CCOC(=O)c1nc2ccc(OC)cc2nc1Cl | 75 °C
11 | O=C1OC(COc2ccccc2)CN1CCOC1CCCCO1 (centres undefined) | 78 to 80 °C
12 | C=CCc1cc2c(c(O)c1C)C(=O)c1c(OC)c3c(c(O)c1C2=O)-c1c(cc2cnn(-c4ccccc4)c(=O)c2c1O)CC3 | 163 °C
13 | CSc1nnc(-c2ccc3ncn(-c4ccc(OC(F)(F)F)cc4)c3c2)o1 | 200 to 201 °C
14 | O=C(c1ccc(F)cc1)c1ccc(-c2ccccc2)cc1 | 149 °C
15 | O=C1CCC(N2C(=O)c3cccc(CNC(=O)c4ccc(C(F)(F)F)c(F)c4)c3C2=O)C(=O)N1 (centres undefined) | 165 to 167 °C
16 | COc1ccc(C=CC(=O)O)cc1-c1cc2c(cc1OCCCCCCO)C(C)(C)CCC2(C)C | 118 to 120 °C
17 | CCC(=O)Nc1c(C)c(C)c2c(c1C)C(c1ccc(C(C)C)cc1)CO2 (centres undefined) | 164 to 165 °C
18 | Cc1ccc(C=Cc2ccccc2)cc1 | 117 °C
19 | CC(CCCC(O)(C(F)(F)F)C(F)(F)F)C1CCC2C3C=CC4=CC(=O)C=CC4(C)C3CCC12C (centres undefined) | 166 to 168 °C
20 | CSc1nc(Cl)c(I)c(C(F)(F)F)n1 | 55 to 56 °C
21 | Nc1nc2ccc(NC(=O)[C@@H]3CCCN3C(=O)[C@@H](Cc3ccccc3)NS(=O)(=O)Cc3ccccc3)cc2s1 | 130 to 133 °C
22 | COc1ccc(Cn2c(=O)[nH]c3ncccc3c2=O)cc1 | 272 to 273 °C
23 | COc1cc(C)nc(NC(=O)NS(=O)(=O)c2cccc3nc(C)sc23)n1 | 178 to 180 °C
24 | CC(C)c1nn(-c2ccccn2)c(-c2ccc(F)cc2)c1/C=C/CO | 106 to 109 °C
25 | Cc1cc2c(cc1Cl)C=C(C(=O)O)C(C(F)(F)F)O2 (centres undefined) | 208 to 209 °C

Row | Structure (SMILES) | melting point
26 | NC(=O)N(O)[C@H]1CC[C@@H](Sc2ccccc2)C1 (relative stereo) | 146 to 148 °C
27 | Cc1c2c(c(C)c3c1OC(C)(CI)C3)N(C=O)C(C)(C)C2 (centres undefined) | 124 to 126 °C
28 | O=C(O)c1cccc(C=CC(=O)N2CCc3c([nH]c4ccccc34)C2c2ccc3c(c2)OCO3)c1 (centres undefined) | 156 to 158 °C
29 | O=C1COC2(CCN(CCC3COc4ccccc4O3)CC2)CN1 (centres undefined) | 139 to 140 °C
30 | CCOCC1OC(n2cnc3c(N)ncnc32)C(O)C1O (centres undefined) | 110 to 112 °C
31 | COc1ccc(CN2C(=O)C(CCO)Oc3ccccc32)cc1 (centres undefined) | 80 to 82 °C
32 | CC[C@H](O)C(=O)N1CCC(Oc2cc3ncnc(Nc4cccc(Cl)c4F)c3cc2OC)CC1 | 152 to 153 °C
33 | CN(C)CCCN(c1ccccc1)c1ncccc1NC(=O)c1ccccc1Cl | 90 to 92 °C
34 | CC(C)NC(=O)OC1SCN(c2ccccc2)C1=O (centres undefined) | 130 to 132 °C
35 | CNC(=O)c1c(NC)ncn1Cc1ccccc1 | 113 to 114 °C
36 | CCCCCCCc1ccc(C(=O)CCCCC(=O)O)cc1 | 80 to 81 °C
37 | COc1cccc(C=C2SC(=S)N(CC(=O)O)C2=O)c1-c1cc2c(cc1C)C(C)(C)CCC2(C)C | 149 °C
38 | NC(=O)c1cccc(-c2ccc(Oc3ccccc3)cc2)n1 | 178 to 180 °C
39 | CCCCCCCCCCCCCCOc1ccc(CNc2ccccc2)cc1 | 58 to 59 °C
40 | COc1ccc2c(c1)c1c3c(c(-c4c(Cl)cccc4Cl)cc1n2CCO)C(=O)NC3=O | 229 to 231 °C
41 | COc1ccc(Cn2c(O)nc3c(N)nc4ccccc4c32)cc1 | > 260 °C
42 | COc1ccc(Cc2c[nH]c(=O)c3ccccc23)cn1 | 191 °C
43 | COC(=O)C(CCSC)NCC(=O)Nc1cccc2c1C(=O)c1c(NC(=O)CNC(CCSC)C(=O)OC)cccc1C2=O (centres undefined) | 126 to 127 °C
44 | CCc1cc2c(OCC(=O)OC)cccc2n1Cc1ccccc1 | 89 to 92 °C
45 | Cc1ccc(-c2ccccc2C#N)cc1Br | 104 to 106 °C
46 | COc1ccc(N2CCC(=O)C2)cc1 | 104 to 105 °C
47 | C(=CCN(c1ccccc1)c1cccc2ccccc12)CN(c1ccccc1)c1cccc2ccccc12 | 140 to 142 °C
48 | Cc1ccccc1C(=O)Nc1ccc(C(=O)N2Cc3ccccc3Sc3ccccc32)cc1 | 145 to 148 °C
49 | Cc1c(C)c2c(c(C)c1N)CC(C)(CN1CCC(CCO)CC1)O2 (centres undefined) | 94 to 95 °C
50 | c1ccc2c(c1)cnn2-c1nc(NC2CCCCC2)c2ccccc2n1 | 278 to 281 °C

Row | Structure (SMILES) | melting point
51 | CCOC(=O)C1=C(COCc2nnn[nH]2)NC(C)=C(C(=O)OC)C1c1cccc(Cl)c1Cl (centres undefined) | 112 to 114 °C
52 | CSC(C(=O)c1cc(-c2ccccc2)on1)N1CCCCC1 (centres undefined) | 113 to 115 °C
53 | COc1ccc(N2CCN(c3cccc(C)c3)CC2)nn1 | 137 °C
54 | C[C@H](C#Cc1sccc1Cc1ccc(F)cc1)N(O)C(N)=O | 99 to 100 °C
55 | CCCCOc1ccc(C(=O)Nc2ccc3cc(CN4CCCC4CC(C)C)cnc3c2C)cc1 (centres undefined) | 128 to 130 °C
56 | Cc1nc(C#N)c2n1-c1ccc(Cl)cc1C(c1ccccc1)=NC2 | 228 to 229 °C
57 | CCOC(=O)c1ccccc1Sc1ccn(C(=O)N(CC)CC)n1 | 65 to 67 °C
58 | COc1ccccc1-c1ccc2c(c1)S(=O)(=O)NC(C1CCCCC1)N2 (centres undefined) | 219 to 222 °C
59 | O=[N+]([O-])c1ccc(C2=NNC(CO)Cc3cc4c(cc32)OCO4)cc1 (centres undefined) | 132 to 134 °C
60 | Cn1nnnc1NC(=O)c1cccc2cccnc12 | 224 to 225 °C
61 | CCOC(=O)c1ccc(-c2ccc(C#N)cc2)cc1 | 114 to 115 °C
62 | COc1cc2c3c(n(C)c(=O)c2cc1OC)-c1cc2c(cc1C3=CCCCI)OCO2 | 173 to 174 °C
63 | CN(c1nc(Nc2ccc(O)cc2)nc(NC2CCCCCC2)n1)C1CCNCC1 | 130 °C
64 | Cc1oc(C=Cc2ccccc2Cl)nc1CC#N | 89 to 90 °C
65 | CCOC(=O)C(Br)=NNc1ccc(F)cc1 | 99 to 100 °C
66 | O=C(Cl)c1ccc(C(c2ccc(C(=O)Cl)cc2)(C(F)(F)F)C(F)(F)F)cc1 | 96 to 97 °C
67 | CNc1ncnc2c1ncn2C1OC(CO)C(O)C1F (centres undefined) | 140 °C
68 | CCCCCCCCCc1c(C(F)(F)F)noc1NS(=O)(=O)c1ccccc1 | 102 °C
69 | COC1(c2ccc(CCc3cc(F)cc(F)c3NC(=O)C(C)(C)C)cc2)CCOCC1 | 147 to 148 °C
70 | O=C(c1ccc(-c2ccncn2)cc1)N1CCN(S(=O)(=O)c2cc3cc(Cl)ccc3[nH]2)CC1 | 229 to 230 °C
71 | COc1cccc(NC(=O)NC2C(=O)N(CC34CC5CC(CC(C5)C3)C4)c3ccccc3N(c3ccccc3)C2=O)c1 (centres undefined) | 267 to 268 °C
72 | CC1CCc2c3c(cc4ccccc24)C(=O)C(C(=O)O)CN31 (centres undefined) | 270 to 273 °C
73 | COc1ccc(O)c(C(=O)Nc2cc(Cl)cc(Cl)c2)c1 | 230 to 232 °C
74 | COc1ccc(C(=O)c2sc3cc(OC)ccc3c2-c2ccccc2)cc1 | 127 to 128 °C
75 | O=C1Nc2ccccc2N(C(=O)CN2C(=O)CCCC2=O)C2CCC(Cc3ccccc3)C12 (centres undefined) | 220 to 221 °C

Row | Structure (SMILES) | melting point
76 | COC(=O)C1=C(C)NC(=O)N(C)C1c1cccc(N)c1 (centres undefined) | 205 to 209 °C
77 | COc1cc2ncc(C#N)c(Nc3ccc(F)c(Cl)c3)c2cc1NC(=O)C=CCN1CCC(O)(O)CC1 | 225 to 230 °C
78 | CCc1nc2c(-c3ccc(Cl)cc3Cl)nnc(C)c2n1C(CC)CC | 63 to 64 °C
79 | Cc1cccc(-c2[nH]c(CC(C)C)nc2-c2cccc(-c3ccc(C(=O)NC4CCOCC4)cc3)c2)n1 | 126 to 129 °C
80 | Cc1cc(C(=O)O)ccc1C1=CCC2CC1C2(C)C (centres undefined) | 139 to 140 °C
81 | CNC(=S)C1(c2cccnc2)CCCCS1 (centres undefined) | 131 °C
82 | COc1c(F)c(F)c([N+](=O)[O-])c2c(=O)c(C(=O)O)cn(C3CC3)c12 | 216 to 221 °C
83 | CCCCn1c(=O)c2cc(C(=O)O)cn2c2cc(Cl)c(Cl)cc21 | 281 to 283 °C
84 | COc1ccc(S(=O)(=O)[C@H](CCCCc2ccccc2)[C@H](C(=O)O)C(C)C)cc1OC (relative stereo) | 173 to 174 °C
85 | CCOC(=O)C(=Cc1c[nH]c2cc(C)ccc12)NC(C)=O | 159 to 162 °C
86 | O=c1cc(N2CCOCC2)oc2c(-c3cccc(O)c3)cccc12 | 203 to 205 °C
87 | CC(O)(c1ccc(OCc2ccc3ccccc3n2)cc1)c1ccc(OCc2ccc3ccccc3n2)cc1 | 129 to 131 °C
88 | O=C(NC(=S)NC1CCN(CCc2c[nH]c3ccccc23)CC1)c1ccccc1 | 212 to 215 °C
89 | Cc1ccccc1C=C1CSCC(=Cc2ccccc2C)C1=O | 123 to 125 °C
90 | COc1cscc1NC=O | 95 to 97 °C
91 | NS(=O)(=O)c1cc(C(=O)O)cc([N+](=O)[O-])c1Oc1ccccc1 | 255 to 256 °C
92 | O=C(O)c1cccc(-n2cnc3cc(-c4ccccc4)ccc32)c1 | 289 to 291 °C
93 | Nc1ccc(Sc2cc(I)nc(I)c2)cc1 | 175 to 176 °C
94 | CC(=O)c1c(C(=O)N(C)C)[nH]c2ccc(Cl)cc12 | 150 to 155 °C
95 | O=C(O)Cc1cc(Cl)c2c(c1)CCC(C(F)(F)F)N2 (centres undefined) | 110 to 112 °C
96 | CC(=O)C1(O)C=c2ccccc2=NC1C (centres undefined) | 54 to 56 °C
97 | CCCCC(C)(Cc1ccc(OCCNC(=O)c2ccc(-c3ccccn3)cc2)cc1)C(=O)O (centres undefined) | 106 to 108 °C
98 | CS(=O)(=O)c1ccc(-c2coc(=O)n2-c2ccc(Br)cc2)cc1 | 217 to 219 °C
99 | COP(=O)(OC)C(O)C(CC1CCCCC1)NC(=O)C(CC(C)C)NC(=O)OC(C)(C)C (centres undefined) | 157 °C
